Measured values from US20060276393A1, “Novel compositions for preventing and treating neurodegenerative and blood coagulation disorders” (Sirtris Pharmaceuticals, Inc., priority 2005, published 2006).

What was measured:
recombinant GST-Sir2 = recombinant GST-Sir2 (Saccharomyces cerevisiae, UniProt P06700); experiment: Sir2 deacetylation rate assay; type: biochemical, S. cerevisiae; conditions: in vitro dose-response
Procedure: Average lifespan for wild type, 22.9 generations, quercetin, 23.4; piceatannol.
His6-tagged recombinant SIRT1 and GST-tagged recombinant Sir2 were prepared as previously described^26. From 0.1 to 1 μg of SIRT1 and 1.5 μg of Sir2 were used per deacetylation assay (in 50 μl total reaction) as previously described^26. SIRT1 assays and certain of those for Sir2 employed the p53-382 acetylated substrate (° Fluor de Lys-SIRT1′, BIOMOL) rather than FdL.
Themed compound libraries (BIOMOL) were used for primary and secondary screening. Most polyphenol compounds were dissolved at 10 mM in dimethylsulfoxide (DMSO) on the day of the assay. For water soluble compounds and negative controls, 1% v/v DMSO was added to the assay. In vitro fluorescence assay results were read in white ½-volume 96-well microplates (Coming Costar 3693) with a CytoFluor™. II fluorescence plate reader (PerSeptive Biosystems, Ex. 360 nm, Em. 460 nm, gain=85). HeLa cells were grown and the cellular deacetylation assays were performed and read, as above, but in full-volume 96-well microplates (Coming Costar 3595). […] Calculation of net fluorescence increases included subtraction of a blank value, which in the case of Sir2 was obtained by omitting the enzyme from the reaction and in the case of SIRT1 by adding an inhibitor (200 μM suramin or 1 mM nicotinamide) to the reaction prior to the acetylated substrate. […]

[1] = tested on: thoracic spinal cord of EAE SJL/J mice; experiment: EAE spinal cord white matter damage; type: in vivo, mouse
Excerpt: At day 40 post-immunization, mice from each group are sacrificed with an overdose of ketamine/xylazine. Spinal cords are dissected, fixed in 10% buffered formalin, and embedded in paraffin. Five micron thick sections are stained with Hematoxylin and Eosin (H&E) and Luxol Fast Blue (LFB) to assess myelin loss. Bielshowesky's silver impregnation is used to evaluate axonal integrity. To asses the amount of axonal loss, paraffin sections are exposed to monoclonal antibodies against mouse non-phosphorylated neurofilament H (Clone SMI-32, Stemberger Monoclonals, Baltimore, USA) and monoclonal antibodies against APP (Clone 22C11, Chemicon). SMI-32 is detected with a Cy3-labeled antibody and visualized by fluorescence microscopy. Anti-APP antibodies are detected by incubation with ColonoPAP, and APP-positive axons are visualized with 3,3′-diaminobenzidine (DAB).
The percentage of the spinal cord showing damage was determined in the cervical, thoracic and lumbar cord. At each level, regions in the 1) dorsal columns and 2) the lateral and ventral white matter tracts containing damaged fibers was circumscribed on photomontages (final magnification ×100) of the entire spinal cord. Damaged areas in each of the two regions were measured using a SummaSketch III (Summagraphics, Seymour, Conn.) digitizing tablet and BIOQUANT Classic 95 software (R&M Biometrics, Nashville, Tenn.). Measurements were also be made of the total area (damaged and nondamaged) of the 1) dorsal columns and 2) the lateral and ventral columns. For each section (one section per animal), the cumulative percent lesion areas were calculated for each region (dorsal column, lateral and ventral columns).

rDNA locus (RDN1) = experiment: Ribosomal DNA recombination and silencing assays; type: cell-based, S. cerevisiae
Procedure: Pre-treated cells (RDN1::URA3) were harvested and spotted as 10-fold serial dilutions on either SC or SC with 5-fluororotic acid (5-FOA).
Ribosomal DNA silencing assays using the URA3 reporters were performed as previously described^26. Ribosomal DNA recombination frequencies were determined by plating W303AR cells^37 on YPD medium with low adenine/histidine and counting the fraction of half-red sectored colonies using Bio-Rad Quantity One software as previously described^35. At least 6000 cells were analyzed per experiment and all experiments were performed in triplicate.

recombinant dSir2 = target: T1, recombinant dSir2 (Drosophila melanogaster, UniProt Q9VK34); experiment: dSir2 deacetylation assay; type: biochemical, D. melanogaster; conditions: dose-dependent; Fluor de Lys
T1 sequence (Q9VK34 1-823): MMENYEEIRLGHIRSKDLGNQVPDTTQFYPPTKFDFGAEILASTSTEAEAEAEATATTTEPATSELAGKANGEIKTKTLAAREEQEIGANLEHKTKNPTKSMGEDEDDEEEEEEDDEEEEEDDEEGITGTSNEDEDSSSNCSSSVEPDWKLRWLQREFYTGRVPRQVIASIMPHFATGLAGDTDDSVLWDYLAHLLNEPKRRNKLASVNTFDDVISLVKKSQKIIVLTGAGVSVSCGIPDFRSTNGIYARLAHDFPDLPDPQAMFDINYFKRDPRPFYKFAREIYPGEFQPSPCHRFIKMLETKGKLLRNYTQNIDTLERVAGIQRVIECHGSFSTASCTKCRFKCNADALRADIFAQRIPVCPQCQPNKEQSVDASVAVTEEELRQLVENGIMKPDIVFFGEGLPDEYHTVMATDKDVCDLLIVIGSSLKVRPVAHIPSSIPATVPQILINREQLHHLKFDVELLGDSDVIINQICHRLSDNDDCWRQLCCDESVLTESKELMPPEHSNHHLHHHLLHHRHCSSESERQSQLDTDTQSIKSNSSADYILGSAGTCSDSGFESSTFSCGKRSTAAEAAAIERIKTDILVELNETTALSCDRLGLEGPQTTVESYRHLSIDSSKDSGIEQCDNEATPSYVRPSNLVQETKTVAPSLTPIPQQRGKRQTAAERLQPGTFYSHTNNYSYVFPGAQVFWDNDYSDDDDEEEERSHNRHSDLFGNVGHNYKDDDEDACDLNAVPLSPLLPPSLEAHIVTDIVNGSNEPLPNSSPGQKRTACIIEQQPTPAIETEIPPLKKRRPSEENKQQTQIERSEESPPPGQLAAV
Procedure: STACs were dissolved at 10 mM in dimethylsulfoxide (DMSO) the day of the assay. […] Drosophila S2 cells were grown in Schneider media with fetal calf serum at 23-28° C., seeded at 9×10^4 cells/well, grown overnight and then exposed to 1 μM TSA, 500 μM polyphenols, and 200 μM FdL for 2 hr. Deacetylation of FdL with lysate from whole cells was determined as described^4. Unless otherwise indicated all initial rate measurements were means of three or more replicates obtained with single incubation times, at which point 5% or less of the substrate initially present was deacetylated.

recombinant GST-Sir2, sequence (P06700 whole entry): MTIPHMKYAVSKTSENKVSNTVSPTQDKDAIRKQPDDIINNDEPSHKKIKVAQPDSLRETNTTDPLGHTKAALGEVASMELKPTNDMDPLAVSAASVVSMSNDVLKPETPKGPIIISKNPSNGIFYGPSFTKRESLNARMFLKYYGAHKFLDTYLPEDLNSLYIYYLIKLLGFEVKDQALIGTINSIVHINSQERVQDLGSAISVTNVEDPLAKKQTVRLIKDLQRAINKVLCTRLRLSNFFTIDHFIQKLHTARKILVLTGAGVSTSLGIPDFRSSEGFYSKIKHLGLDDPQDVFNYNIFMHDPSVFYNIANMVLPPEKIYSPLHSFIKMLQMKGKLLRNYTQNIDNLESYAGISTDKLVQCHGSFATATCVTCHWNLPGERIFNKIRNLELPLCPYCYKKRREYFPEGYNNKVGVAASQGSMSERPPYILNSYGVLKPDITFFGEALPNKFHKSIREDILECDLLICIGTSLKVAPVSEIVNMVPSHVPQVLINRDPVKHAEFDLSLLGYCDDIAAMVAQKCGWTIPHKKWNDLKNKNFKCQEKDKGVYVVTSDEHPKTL

Oc1ccc(/C=C/c2cc(O)cc(O)c2)cc1 [Resveratrol, 3,5,4′-Trihydroxy-trans-stilbene]
concentrations at which inhibition of Sir2 was seen (recombinant GST-Sir2): > 100 µM | optimum concentration of activator for Sir2 stimulation (recombinant GST-Sir2): 2 to 5 µM | degree of damage in dorsal, lateral and ventral white matter ([1]; resveratrol 200 mg/kg): slightly increased, albeit not significantly | reduction of degree of damage in dorsal, lateral and ventral white matter ([1]; resveratrol 400 mg/kg, significant): approximately 40% | reduction of the frequency of rDNA recombination (rDNA locus (RDN1); SIR2-dependent): ~60% | effect on rDNA silencing (rDNA locus (RDN1); URA3 reporter, 5-FOA): only minor effects on rDNA silencing | rDNA recombination in the presence of nicotinamide (rDNA locus (RDN1); with Sir2 inhibitor nicotinamide): decreased | stimulated deacetylation (maximum) (recombinant dSir2): ≤ 2.4 fold
